Laboratory results reported in PMC3919579, “Timing of GTP binding and hydrolysis by translation termination factor RF3” (Nucleic Acids Research, 2013).

Biological target: T1, RF3 (Escherichia coli, UniProt P0A7I4)
T1 construct: gene prfC; free RF3, N-terminal His-tag, pET30a, BL21(DE3), Ni-NTA and Resource Q
Experiment: competition titration against mantGDP, FRET
Format: binding
Conditions: pH 7.5, 37 °C, 7 mM MgCl2; competition with purified RF3-mantGDP

T1 sequence (P0A7I4 2-529): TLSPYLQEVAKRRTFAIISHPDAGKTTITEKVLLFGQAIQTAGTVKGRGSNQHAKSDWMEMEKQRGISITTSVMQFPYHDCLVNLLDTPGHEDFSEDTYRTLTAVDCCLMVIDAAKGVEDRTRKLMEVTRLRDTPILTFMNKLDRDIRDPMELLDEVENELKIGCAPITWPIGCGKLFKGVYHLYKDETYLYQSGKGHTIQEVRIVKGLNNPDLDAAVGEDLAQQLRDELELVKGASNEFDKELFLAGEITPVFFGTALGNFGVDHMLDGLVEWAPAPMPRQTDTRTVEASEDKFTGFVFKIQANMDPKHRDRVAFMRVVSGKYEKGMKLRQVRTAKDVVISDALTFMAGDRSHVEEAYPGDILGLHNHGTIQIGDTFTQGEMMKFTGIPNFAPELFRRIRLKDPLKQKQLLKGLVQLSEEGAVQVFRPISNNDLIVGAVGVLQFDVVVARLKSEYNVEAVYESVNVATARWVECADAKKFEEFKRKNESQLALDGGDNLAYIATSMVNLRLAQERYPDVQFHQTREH

ratio of added nucleotide to mantGDP at half-saturation [fold] | Compound
60 | Nc1nc2c(ncn2[C@@H]2O[C@H](COP(=O)(O)OP(=O)(O)CP(=O)(O)O)[C@@H](O)[C@H]2O)c(=O)[nH]1 [GDPCP]
3 | Nc1nc2c(ncn2[C@@H]2O[C@H](COP(=O)(O)OP(=O)(O)OP(=O)(O)O)[C@@H](O)[C@H]2O)c(=O)[nH]1 [GTP]
40 | Nc1nc2c(ncn2[C@@H]2O[C@H](COP(=O)(O)OP(=O)(O)NP(=O)(O)O)[C@@H](O)[C@H]2O)c(=O)[nH]1 [GDPNP]
1 | Nc1nc2c(ncn2[C@@H]2O[C@H](COP(=O)(O)OP(=O)(O)O)[C@@H](O)[C@H]2O)c(=O)[nH]1 [GDP]
